Experimental findings from PMC11232401, “Characterization of antimalarial activity of artemisinin-based hybrid drugs” (Antimicrobial Agents and Chemotherapy, 2024) are described below.

Read-outs that look alike come from different tables or passages of the source.

The subject of series [1] is 3D7 strain of P. falciparum. The series can be described thus: Host cell-mediated drug degradation: antiplasmodial activity of uRBC supernatants. It counts as cell-based, Plasmodium falciparum. The note with it: for IC50: Plasmodium falciparum, 3D7, 0.16 h, 500 nM drug, 3D7, SYBR Green I, median ± SEM (AQ mean, 95% CI), read-out: IC50 of supernatants harvested at 0.16 h; for Fold changes (24 h/0.16 h): 3D7, ratio of IC50 at 24 h to IC50 at 0.16 h. The method, then:
Each well of 96-well plates was filled with 125 µL drug (1000 nM) and 125 µL uninfected red blood cells (uRBC), which were mixed to obtain a final drug concentration of 500 nM and 2.5% or 1.0% hematocrit. The plates were incubated at 37°C in the standard gas mixture. After each time point (10 min, 6 h, and 24 h), supernatants were carefully harvested and stored at −80°C until use. […] Next, supernatants were diluted in a complete medium in six different dilutions and were aliquoted in new plates. The antimalarial activity of these supernatants and freshly dissolved drugs was determined in an asynchronous parasite culture of P. falciparum (3D7, D10, and W2 strains) for 72 h using the same method described above, and parasite viability was assessed by the pLDH ([38]) and SYBR Green I ([41]) methods. Only the experiments where the IC50 values of the supernatants harvested at 10 min were the same as those of the respective fresh drugs were considered for determining equivalent drug concentration. […] Decay in drug concentration was estimated by using the normalized slope values calculated from linear regression fits using the slope values of a standard curve as reference. Three independent experiments were performed using two replicates.
Figure S5: Data associated to Figure 3 in the main text of the manuscript. Panel A: Representative response-concentration curves of the antiplasmodial activity of supernatant-derived uRBC (2.5% hematocrit) harvested at indicated times (0.16, 6, and 24 h). Drug activity on parasite viability was determined 72 h after parasite incubation (3D7 strain, asynchronous). Values were subtracted from control (without treatment), transformed, and normalized to calculate nonlinear fit. Parasite viability was determined by SYBR Green I. Values are mean and error bars are the standard deviation of a single experiment, each concentration in duplicate. […] Footnotes: ^[a] Parasite viability was determined by SYBR Green I. ^[b^] Parasite viability was determined by pLDH readout. Values are median ± SEM of three independent experiments, each concentration in duplicate. ^[c^] […] These values are expressed as mean and 95% confidence interval (CI) of one experiment, each concentration in duplicate. […] Unpaired two-tailed t-test at 95% CI: *p <0.05; **p <0.01.

Series [2] deals with Asynchronous NF54 strain of P. falciparum. The series can be described thus: Speed of drug activity (pLDH). Type of series: cell-based, Plasmodium falciparum. The note with it: for IC50: Plasmodium falciparum, NF54, asynchronous, mean (95% CI). As for the experimental part: Each well of 96-well plates was filled with 100 µL drug and 100 µL culture containing asynchronous P. falciparum (NF54 strain) parasites, which were mixed to obtain a final parasitemia of 1.0% to 1.5% and 1.0% hematocrit. The plates were incubated for 24, 48, and 72 h at 37°C with a standard gas mixture. […] Parasite viability was measured using the pLDH method, and IC50 values were calculated as described above. Three independent experiments were performed using two technical replicates.
Figure S3: Speed of antiparasitic activity of hybrids (1) and (2) against CQ-sensitive NF54 strain of P. falciparum. Panel A: Representative response-concentration curves. Panel B: A table summarizing the results. Footnotes for table: ^[a] Parasite viability was accessed at each indicated time (24, 48, or 72 h) after addition of drugs. Values are the mean and 95% confidence interval of one experiment using each concentration of compounds in duplicate. Parasite viability was determined by parasite lactate dehydrogenase (pLDH) assay. DHA = dihydroartemisinin; ATO = atovaquone.

Series [3] relates to quiescent ART-resistant parasites (F32-ART). In words: Quiescent-stage survival assay (QSA). Type of series: cell-based, Plasmodium falciparum. The note with it: threshold of activity 6 days. The method, then:
The QSA was performed as previously described to determine the drug activity on quiescent ART-resistant parasites ([11]). F32-ART culture parasites were synchronized at the ring stage and adjusted to 3% parasitemia and 2% hematocrit. […] At the end of treatment, parasites from each of the three conditions were washed with RPMI-1640 medium and replaced in new wells in a drug-free culture medium with 10% human serum. Parasitemia was determined daily by thin blood smears until the cultures reached their initial parasitemia (3%), which was defined as the recrudescence day ([11]). The recrudescence capacity of parasites exposed in conditions A and B was compared to determine whether the drug was active on quiescent parasites. Condition C was designed to check that the concentration at which the drug was tested acted on proliferating parasites. If no parasite recrudescence was observed, the experiment was stopped.

The nature of series [4]: In vitro metabolic stability assay in microsomes. Conditions: for half-life at 1 µM: read-out: Degradation half-life; for microsomal CLint at 1 µM: 0.4 mg/mL. Type of series: in vitro ADME. The method, then:
In vitro microsomal stability assay was performed in duplicate in a 96-well microtiter plate, using a single-point experiment design ([42]). Test compounds (1 µM) were incubated individually in human (pool of 50, mixed gender), rat (pool of 711, male Sprague Dawley), and mouse (pool of 1,634, male CD1) liver microsomes (Xenotech, Kansas, USA) to a final protein concentration of 0.4 mg/mL, suspended in 0.1 M phosphate buffer (pH 7.4). Incubations were started by the addition of NADPH (1 mM) as a cofactor and shaken for 30 min at 37°C. The reactions were quenched by the addition of 300 µL of ice-cold acetonitrile containing an internal standard (carbamazepine, 0.0236 µg/mL) and centrifuged. The supernatant was transferred to a fresh 96-well plate and analyzed by liquid chromatography-tandem mass spectrometry (LC-MS/MS) (Agilent Rapid Resolution HPLC, AB SCIEX 4500 MS). The relative loss of the parent compound over time was monitored, and plots (concentration vs time) were prepared per compound to determine the first-order rate constant for compound depletion. This was in turn used to calculate half-life, in vitro intrinsic clearance (Clint), and in vivo hepatic extraction ratio ([43]).

Turning to `CCN(CC)Cc1cc(Nc2ccnc3cc(Cl)ccc23)ccc1O` [AQ, amodiaquine, reference compound], in series [1] (uRBC 1.0% hematocrit), the IC50 was 3.9 nM and the “Fold changes (24 h/0.16 h)” value stood at 0.76. In series [1] (uRBC 2.5% hematocrit), the IC50 was found to be 3.6 nM and the “Fold changes (24 h/0.16 h)” value is reported as 0.91.

For the compound `O=C1C(O)=C([C@H]2CC[C@H](c3ccc(Cl)cc3)CC2)C(=O)c2ccccc21` [ATO, atovaquone, reference compound], the IC50 is above 600 nM in series [2] (viability at 24 h, read-out: IC50, 24 h); 5.3 nM in series [2] (viability at 48 h, read-out: IC50, 48 h); 0.78 nM in series [2] (viability at 72 h, read-out: IC50, 72 h). The “Conclusion (speed of antiparasitic activity)” value in series [2] (from IC50 at 24, 48, 72 h) is “Slow-acting”. In addition, in series [3], the “delay of recrudescence in the QSA versus DHA alone” value is “up to 10 days”.

With `C[C@H]1[C@H](OC(=O)CCC(=O)O)O[C@@H]2O[C@@]3(C)CC[C@H]4[C@H](C)CC[C@@H]1[C@@]24OO3` [Artesunate, artesunate, reference compound], the half-life at 1 µM in series [4] (both sexes, pH 7.4, human liver microsomes) was 7 min; in series [4] (male, CD1, pH 7.4, mouse liver microsomes), 4 min; in series [4] (male, Sprague Dawley, pH 7.4, rat liver microsomes), 4 min. Also, the microsomal CLint at 1 µM in series [4] (both sexes, human liver microsomes, pH 7.4) was found to be 250 µL/min/mg; in series [4] (male, CD1, mouse liver microsomes, pH 7.4), 429 µL/min/mg; in series [4] (male, Sprague Dawley, rat liver microsomes, pH 7.4), 442 µL/min/mg. Moreover, the “Drug remaining after 30 min” value in series [4] (human liver microsomes) was determined as 5%; in series [4] (mouse liver microsomes) it was 0.6%; in series [4] (rat liver microsomes), 0.5%.
